Assay results as given in US8940897B2, “1,3,4-oxadiazole and 1,3,4-thiadiazole β-lactamase inhibitors” (priority 2012, dated 2015).
Structures can show the parent of a compound that is named as a salt.

What was measured:
[1] = tested on: bacterial strains that express KPC β-lactamases; experiment: Synergy MIC / standard BLI potentiation MIC assay, strains expressing KPC β-lactamases; type: cell-based; conditions: for at least one KPC strain and/or a better spectrum of activity against KPC strains than Avibactam; in the presence of a β-lactam
Summary of the method: (§1)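 CLSI broth microdilution in CAMHB, ~10^5 CFU/mL, 18–20 h at 37 °C with aeration; engineered E. coli kept on 25 μg/mL tetracycline. Potentiation: β-lactam 128–0.13 μg/mL with BLI fixed at 4 μg/mL; synergy MIC: BLI serially diluted with fixed β-lactam. MIC is the lowest concentration without visible turbidity.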

[2] = tested on: bacterial strains that express the class D cephalosporinase OXA-15; experiment: Synergy MIC / standard BLI potentiation MIC assay, strains expressing OXA-15;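 also: more active means a lower MIC or sMIC than Avibactam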; type: cell-based, E. coli; conditions: in the presence of a β-lactam; comparator Avibactam (CCC)
Summary of the method: as §1

Structure (SMILES) | activity against bacterial strains that express KPC β-lactamase compared with Avibactam [1] | activity against bacterial strains that express OXA-15 β-lactamase compared with Avibactam [2]
O=C1N2C[C@@H](CC[C@H]2c2nnc(C3CCNC3)o2)N1OS(=O)(=O)O (stereo partly drawn) [Compound 710, (2S,5R)-7-oxo-2-(5-(pyrrolidin-3-yl)-1,3,4-oxadiazol-2-yl)-1,6-diazabicyclo[3.2.1]octan-6-yl hydrogen sulfate] | more active than Avibactam | more active than Avibactam
N=C(N)NC1(Cc2nnc([C@@H]3CC[C@@H]4CN3C(=O)N4OS(=O)(=O)O)o2)CC1 [Compound 739, (2S,5R)-2-(5-((1-guanidinocyclopropyl)methyl)-1,3,4-oxadiazol-2-yl)-7-oxo-1,6-diazabicyclo[3.2.1]octan-6-yl hydrogen sulfate] | more active than Avibactam | more active than Avibactam
O=C1N2C[C@@H](CC[C@H]2c2nnc(CCCCNC3CCNCC3)o2)N1OS(=O)(=O)O [Compound 772, (2S,5R)-7-oxo-2-(5-(4-(piperidin-4-ylamino)butyl)-1,3,4-oxadiazol-2-yl)-1,6-diazabicyclo[3.2.1]octan-6-yl hydrogen sulfate] | more active than Avibactam | more active than Avibactam
N=C(N)NCC(O)Cc1nnc([C@@H]2CC[C@@H]3CN2C(=O)N3OS(=O)(=O)O)o1 (stereo partly drawn) [Compound 730, (2S,5R)-2-(5-(3-guanidino-2-hydroxypropyl)-1,3,4-oxadiazol-2-yl)-7-oxo-1,6-diazabicyclo[3.2.1]octan-6-yl hydrogen sulfate] | more active than Avibactam | more active than Avibactam
NCCCc1nnc([C@@H]2CC[C@@H]3CN2C(=O)N3OS(=O)(=O)O)o1 [Compound 720, (2S,5R)-2-(5-(3-aminopropyl)-1,3,4-oxadiazol-2-yl)-7-oxo-1,6-diazabicyclo[3.2.1]octan-6-yl hydrogen sulfate] | more active than Avibactam | more active than Avibactam
N=C(N)NC[C@H](O)c1nnc([C@@H]2CC[C@@H]3CN2C(=O)N3OS(=O)(=O)O)o1 [Compound 732, (2S,5R)-2-(5-((S)-2-guanidino-1-hydroxyethyl)-1,3,4-oxadiazol-2-yl)-7-oxo-1,6-diazabicyclo[3.2.1]octan-6-yl hydrogen sulfate] | more active than Avibactam | more active than Avibactam
N[C@H]1CC[C@@H](c2nnc([C@@H]3CC[C@@H]4CN3C(=O)N4OS(=O)(=O)O)o2)C1 [Compound 768, (2S,5R)-2-(5-((1R,3S)-3-aminocyclopentyl)-1,3,4-oxadiazol-2-yl)-7-oxo-1,6-diazabicyclo[3.2.1]octan-6-yl hydrogen sulfate] | more active than Avibactam | more active than Avibactam
N[C@@H]1CC[C@H](c2nnc([C@@H]3CC[C@@H]4CN3C(=O)N4OS(=O)(=O)O)o2)C1 [Compound 729, (2S,5R)-2-(5-((1S,3R)-3-aminocyclopentyl)-1,3,4-oxadiazol-2-yl)-7-oxo-1,6-diazabicyclo[3.2.1]octan-6-yl hydrogen sulfate] | more active than Avibactam | more active than Avibactam
O=C1N2C[C@@H](CC[C@H]2c2nnc(CCNC3CCNCC3)o2)N1OS(=O)(=O)O [Compound 770, (2S,5R)-7-oxo-2-(5-(2-(piperidin-4-ylamino)ethyl)-1,3,4-oxadiazol-2-yl)-1,6-diazabicyclo[3.2.1]octan-6-yl hydrogen sulfate] | more active than Avibactam | more active than Avibactam
N=C1NCC(c2nnc([C@@H]3CC[C@@H]4CN3C(=O)N4OS(=O)(=O)O)o2)N1 (stereo partly drawn) [Compound 767, (2S,5R)-2-(5-(2-iminoimidazolidin-4-yl)-1,3,4-oxadiazol-2-yl)-7-oxo-1,6-diazabicyclo[3.2.1]octan-6-yl hydrogen sulfate] | more active than Avibactam | more active than Avibactam
N=C(N)NCCc1nnc([C@@H]2CC[C@@H]3CN2C(=O)N3OS(=O)(=O)O)o1 [Compound 705, (2S,5R)-2-(5-(2-guanidinoethyl)-1,3,4-oxadiazol-2-yl)-7-oxo-1,6-diazabicyclo[3.2.1]octan-6-yl hydrogen sulfate] | more active than Avibactam | more active than Avibactam
N[C@H]1CN[C@@H](c2nnc([C@@H]3CC[C@@H]4CN3C(=O)N4OS(=O)(=O)O)o2)C1 [Compound 761, (2S,5R)-2-(5-((2R,4R)-4-aminopyrrolidin-2-yl)-1,3,4-oxadiazol-2-yl)-7-oxo-1,6-diazabicyclo[3.2.1]octan-6-yl hydrogen sulfate] | more active than Avibactam | more active than Avibactam
NCc1nnc([C@@H]2CC[C@@H]3CN2C(=O)N3OS(=O)(=O)O)o1 [Compound 702, (2S,5R)-2-(5-(aminomethyl)-1,3,4-oxadiazol-2-yl)-7-oxo-1,6-diazabicyclo[3.2.1]octan-6-yl hydrogen sulfate] | more active than Avibactam | more active than Avibactam
N=C(N)N1CC(c2nnc([C@@H]3CC[C@@H]4CN3C(=O)N4OS(=O)(=O)O)o2)C1 [Compound 709, (2S,5R)-2-(5-(1-carbamimidoylazetidin-3-yl)-1,3,4-oxadiazol-2-yl)-7-oxo-1,6-diazabicyclo[3.2.1]octan-6-yl hydrogen sulfate] | more active than Avibactam | more active than Avibactam
O=C1N2C[C@@H](CC[C@H]2c2nnc(CN[C@@H]3CCNC3)o2)N1OS(=O)(=O)O [Compound 766, (2S,5R)-7-oxo-2-(5-(((R)-pyrrolidin-3-ylamino)methyl)-1,3,4-oxadiazol-2-yl)-1,6-diazabicyclo[3.2.1]octan-6-yl hydrogen sulfate] | more active than Avibactam | more active than Avibactam
N=C(N)NCc1nnc([C@@H]2CC[C@@H]3CN2C(=O)N3OS(=O)(=O)O)s1 [Compound 721, (2S,5R)-2-(5-(guanidinomethyl)-1,3,4-thiadiazol-2-yl)-7-oxo-1,6-diazabicyclo[3.2.1]octan-6-yl hydrogen sulfate] | more active than Avibactam | more active than Avibactam
O=C1N2C[C@@H](CC[C@H]2c2nnc([C@@H]3CCNC3)o2)N1OS(=O)(=O)O [Compound 759, (2S,5R)-7-oxo-2-(5-((R)-pyrrolidin-3-yl)-1,3,4-oxadiazol-2-yl)-1,6-diazabicyclo[3.2.1]octan-6-yl hydrogen sulfate] | more active than Avibactam | more active than Avibactam
N[C@@H]1CN[C@@H](c2nnc([C@@H]3CC[C@@H]4CN3C(=O)N4OS(=O)(=O)O)o2)C1 [Compound 763, (2S,5R)-2-(5-((2R,4S)-4-aminopyrrolidin-2-yl)-1,3,4-oxadiazol-2-yl)-7-oxo-1,6-diazabicyclo[3.2.1]octan-6-yl hydrogen sulfate] | more active than Avibactam | more active than Avibactam
O=C1N2C[C@@H](CC[C@H]2c2nnc(CCCC3CNC3)o2)N1OS(=O)(=O)O [Compound 743, (2S,5R)-2-(5-(3-(azetidin-3-yl)propyl)-1,3,4-oxadiazol-2-yl)-7-oxo-1,6-diazabicyclo[3.2.1]octan-6-yl hydrogen sulfate] | more active than Avibactam | more active than Avibactam
N=C(N)N[C@H]1C[C@@H](c2nnc([C@@H]3CC[C@@H]4CN3C(=O)N4OS(=O)(=O)O)s2)C1 [Compound 784, (2S,5R)-2-(5-((1s,3R)-3-guanidinocyclobutyl)-1,3,4-thiadiazol-2-yl)-7-oxo-1,6-diazabicyclo[3.2.1]octan-6-yl hydrogen sulfate] | more active than Avibactam | more active than Avibactam
CNCCc1nnc([C@@H]2CC[C@@H]3CN2C(=O)N3OS(=O)(=O)O)o1 [Compound 722, (2S,5R)-2-(5-(2-(methylamino)ethyl)-1,3,4-oxadiazol-2-yl)-7-oxo-1,6-diazabicyclo[3.2.1]octan-6-yl hydrogen sulfate] | more active than Avibactam | more active than Avibactam
